Reference: patent publication US11807625B2, “Capsid inhibitors for the prevention of HIV” (Gilead Sciences, Inc., priority 2019, dated 2023)
Where two headings read alike, the source gives them in different places.

Assay: PK of compound of Formula (Ia) after single subcutaneous dose of solution formulations in beagle dogs
Type: in vivo
Procedure: Formulations containing the compound of Formula (Ia), or a pharmaceutically acceptable salt thereof, were prepared as solutions and optionally administered subcutaneously or intramuscularly to rats, rabbits, and/or dogs.
(§1) A solution of about 400 mg/mL of the compound of Formula (Ia) having 17.00 w/w % water, 36.40 w/w % PEG 300, 35.20 w/w % of a sodium salt of a compound of Formula (Ia), 5.00 w/w % ethanol, and 6.40 w/w % poloxamer 188 was prepared. The solution was administered subcutaneously to male beagle dogs at a dose level of about 12 mg/kg and male Wistar Han rats at a dose level of about 50 mg/kg. The pharmacokinetic profiles were determined, and the results for dogs are summarized in Table and Table, while the results for rats are summarized in Table and Table below.
as §1, with “500” for “400”, “14.06” for “17.00”, “30.12” for “36.40”
A solution of about 300 mg/mL of the compound of Formula (Ia) having 23.33 w/w % water, 48.99 w/w % PEG 300, 26.47 w/w % of a sodium salt of a compound of Formula (Ia), and 1.21 w/w % poloxamer 188 was prepared. The solution was administered subcutaneously to male beagle dogs at a dose level of about 6 mg/kg and male Wistar Han rats at a dose level of about 50 mg/kg. The pharmacokinetic profiles were determined, and the results for dogs are summarized in Table and Table, while the results for rats are summarized in Table and Table below.
as §1, with “18.80” for “17.00”, “40.25” for “36.40”, “34.38” for “35.20”, “1.57” for “6.40”
as §1, with “500” for “400”, “16.29” for “17.00”, “34.88” for “36.40”, “41.92” for “35.20”, “1.91” for “6.40”
as §1, with “20.90” for “17.00”, “44.72” for “36.40”, “and 34.38” for “35.20”, “(Ia)” for “(Ia), 5.00 w/w % ethanol, and 6.40 w/w % poloxamer 188”
A solution of about 400 mg/mL of the compound of Formula (Ia) having 19.90 w/w % water, 42.59 w/w % PEG 300, 34.38 w/w % of a sodium salt of a compound of Formula (Ia), and 3.13 w/w % poloxamer 188 was prepared. The solution was administered subcutaneously to male beagle dogs at a dose level of about 12 mg/kg and male Wistar Han rats at a dose level of about 50 mg/kg. […]

[1] = male, beagle, dog, plasma, sc, 6 mg/kg, individual dogs, SC 6 mg/kg, solution V, 300 mg/mL
[2] = male, beagle, dog, plasma, sc, 6 mg/kg, mean, n = 3 dogs, SC 6 mg/kg, solution V, 300 mg/mL
[3] = male, beagle, dog, plasma, sc, 6 mg/kg, mean ± SD, n = 3 dogs, SC 6 mg/kg, solution V, 300 mg/mL

- Plasma concentration (beagle dogs, SC 12 mg/kg, 400 mg/mL solution W (5.00% ethanol, 1.57% poloxamer 188), 1.00 h, animals #1-#3): BLQ
- concentration at 3 h [1]: 2.26 nM
- concentration at 3 h (male, beagle, dog, plasma, sc, 6 mg/kg, mean (dog #2 BLQ), SC 6 mg/kg, solution V, 300 mg/mL): 2.75 nM
- concentration at 8 h [1]: 8.26 nM
- concentration at 8 h [2]: 10.4 nM
- concentration at 24 h [1]: 22.3 nM
- concentration at 24 h [2]: 23.5 nM
- concentration at 48 h [1]: 37.1 nM
- concentration at 48 h [2]: 31.5 nM
- concentration at 72 h [1]: 32.8 nM
- concentration at 72 h [2]: 31.3 nM
- concentration at 96 h [1]: 39.5 nM
- concentration at 96 h [2]: 32.6 nM
- concentration at 168 h [1]: 41.8 nM
- concentration at 168 h [2]: 39.2 nM
- concentration at 336 h [1]: 99.2 nM
- concentration at 336 h [2]: 129 nM
- concentration at 504 h [1]: 122 nM
- concentration at 504 h [2]: 151 nM
- concentration at 672 h [1]: 95.3 nM
- concentration at 672 h [2]: 122 nM
- concentration at 840 h [1]: 53.3 nM
- concentration at 840 h [2]: 58.9 nM
- concentration at 1008 h [1]: 29.1 nM
- concentration at 1008 h [2]: 30.2 nM
- concentration at 1344 h [1]: 26.9 nM
- concentration at 1344 h [2]: 23.8 nM
- concentration at 1680 h [1]: 13.7 nM
- concentration at 1680 h [2]: 12.3 nM
- concentration at 2016 h (male, beagle, dog, plasma, sc, 6 mg/kg, 2016 h, mean, n = 3 dogs, SC 6 mg/kg, solution V, 300 mg/mL): 8.5 nM
- concentration at 2352 h [1]: 4.5 nM
- concentration at 2352 h [2]: 4.7 nM
- concentration at 2688 h [1]: 2.1 nM
- concentration at 2688 h [2]: 2.7 nM
- concentration at 3024 h [1]: 2.5 nM
- concentration at 3024 h [2]: 2.3 nM
- concentration at 3360 h [1]: 1.5 nM
- concentration at 3360 h [2]: 1.3 nM
- AUC(0-inf) [3]: 113 ± 12 µM·h
- Cmax [3]: 155 ± 30 nM
- Tmax [3]: 18.7 ± 4.04 days
- half-life [3]: 25.5 days
- AUC(0-t) (male, beagle, dog, plasma, sc, 6 mg/kg, mean ± SD, n = 3 dogs, SC 6 mg/kg, solution V, 300 mg/mL, read-out: AUC0-24 h): 0.304 ± 0.028 µM·h
- AUC(0-t) (male, beagle, dog, plasma, sc, 6 mg/kg, mean ± SD, n = 3 dogs, SC 6 mg/kg, solution V, 300 mg/mL, read-out: AUC0-168 h): 5.07 ± 0.5 µM·h
- AUC(0-t) (male, beagle, dog, plasma, sc, 6 mg/kg, mean ± SD, n = 3 dogs, SC 6 mg/kg, solution V, 300 mg/mL, read-out: AUC0-672 h): 65.6 ± 9.9 µM·h
- AUC(0-t) (male, beagle, dog, plasma, sc, 6 mg/kg, mean ± SD, n = 3 dogs, SC 6 mg/kg, solution V, 300 mg/mL, read-out: AUC0-1344 h): 97.4 ± 12.7 µM·h
- AUC(0-t) (male, beagle, dog, plasma, sc, 6 mg/kg, mean ± SD, n = 3 dogs, SC 6 mg/kg, solution V, 300 mg/mL, read-out: AUC0-1680 h): 103 ± 12 µM·h
Compound: CC(C)(C#Cc1ccc(-c2ccc(Cl)c3c(NS(C)(=O)=O)nn(CC(F)(F)F)c23)c([C@H](Cc2cc(F)cc(F)c2)NC(=O)Cn2nc(C(F)(F)F)c3c2C(F)(F)[C@@H]2C[C@H]32)n1)S(C)(=O)=O [compound of Formula (Ia)]
